The target of the test is SGK1 (human) (UniProt O00141). The test is described as follows: Flashplate.

What is called Ki is a dissociation constant, usually derived from enzyme kinetics or from competition with a known ligand. A higher Ki goes with weaker binding.

SGK1 (human), sequence (O00141 whole entry, looked up): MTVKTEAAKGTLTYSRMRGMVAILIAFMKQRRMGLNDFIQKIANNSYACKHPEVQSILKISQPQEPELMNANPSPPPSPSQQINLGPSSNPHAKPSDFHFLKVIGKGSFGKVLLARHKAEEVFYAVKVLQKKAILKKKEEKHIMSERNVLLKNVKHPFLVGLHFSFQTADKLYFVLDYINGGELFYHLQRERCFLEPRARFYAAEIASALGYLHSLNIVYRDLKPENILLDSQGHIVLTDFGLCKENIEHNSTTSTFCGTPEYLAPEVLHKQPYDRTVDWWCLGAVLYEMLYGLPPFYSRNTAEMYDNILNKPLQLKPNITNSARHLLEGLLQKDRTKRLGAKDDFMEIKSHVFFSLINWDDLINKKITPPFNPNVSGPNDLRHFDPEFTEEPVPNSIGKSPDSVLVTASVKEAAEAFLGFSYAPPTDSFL

On to `CCCCCCCCCCCCOc1ccc(NC(=N)N)cc1NC(=N)N`, for which the Ki was > 10 µM.

For the compound `Cc1n[nH]c2ccc(-c3cncc(OCC(CN)Cc4ccccc4)c3)cc12` (centres undefined), the Ki was found to be 1.26 µM.

With `CN(C)S(=O)(=O)c1ccccc1-c1ccc2c(c1)Nc1ccccc1NC2=O`, the Ki was > 10 µM.

For `Cc1ccc(-n2nc(C)c3c(=O)c4cc(Cl)ccc4n(O)c32)cc1`, the Ki is > 10 µM.

As to `NC(=O)c1sc2ccc(Cl)c(Cl)c2c1NC(=O)c1ccc(Cl)cc1`, the Ki was > 10 µM.

As to `Cc1ccc(-c2nn(C(C)(C)C)c3ncnc(N)c23)cc1`, the Ki is > 10 µM.

As for `CNC(=O)c1ccccc1Nc1nc(Nc2ccc(N3CCOCC3)cc2OC)ncc1Cl`, the Ki was > 7.94 µM.

Take `Nc1nccc2scc(-c3ccc(NC(=O)Nc4cccc(F)c4)cc3)c12`: the Ki was > 10 µM.

Consider `NC(=O)c1cc2c(-c3cc(C(F)(F)F)cc(C(F)(F)F)c3)cncc2s1`, for which the Ki was > 10 µM.

In turn, `Cc1ccc(C(=O)Nc2c(C(N)=O)sc3ccc(Cl)c(Cl)c23)cc1` gave a Ki of 3.16 µM.

Compound `c1cc2cc(-c3ccc4cn[nH]c4c3)cnc2[nH]1` had a Ki of 2 µM.

Take `CCN1CCN(Cc2ccc(NC(=O)Nc3ccc(Oc4cc(NC)ncn4)cc3)cc2C(F)(F)F)CC1`: the Ki is > 6.31 µM.

For `CC(=O)Nc1cc(N)c(C#N)c(-c2ccccc2)n1`, the Ki was > 10 µM.

As for `N#Cc1ccc2nc(N)n(-c3nc(-c4ccccc4)cs3)c2c1`, the Ki is > 10 µM.

For the compound `O=C(Nc1ccc(-c2cccc3sncc23)cc1)Nc1ccc(F)c(C(F)(F)F)c1`, the Ki is > 10 µM.

For `c1ccc(COc2ccc(Nc3ncnc4ccccc34)cc2)cc1`, the Ki was > 10 µM.

As to `O=C(NS(=O)(=O)c1ccc(NCCSc2ccc(O)cc2)c([N+](=O)[O-])c1)c1ccc(-c2ccc(F)cc2)cc1`, the Ki is > 10 µM.

For `Cc1cc(C)c2oc(Nc3ccc(-c4cccc(C(N)=O)c4N)cc3F)nc2c1`, the inhibition constant Ki is > 10 µM.

As to `COc1cc(/C=C(\C#N)c2nc3ccccc3[nH]2)c(Br)cc1O`, the Ki is 6.31 µM.

In turn, `CNC(=O)c1cc2c(-c3ccccc3F)n[nH]c2s1` had a Ki of 3.16 µM.

Take `COc1cccc([C@@H](C)NC(=O)c2ccc(-c3ccncc3)c(F)c2)c1`: the Ki was 0.316 µM.

With `c1ccc(-c2c[nH]c3ncnc(N4CCCCC4)c23)cc1`, the Ki is > 6.31 µM.

As for `O=C1/C(=N\Nc2cccc3c(=O)[nH][nH]c(=O)c23)C(c2ccccc2)=NN1c1ccccc1`, the Ki is > 10 µM.

As to `Nc1nccc2scc(-c3ccc(NC(=O)Nc4cccc(Br)c4)cc3)c12`, the Ki was > 10 µM.

`Cn1c2ccccc2c2c3c(c4c5ccccc5n(CCC#N)c4c21)CNC3=O`: the Ki was > 10 µM.

For `O=c1[nH]cnc2c1oc1ccc(Cl)cc12`, the Ki is > 10 µM.

For `O=C(CO)N1CCC(c2[nH]nc(-c3ccc(Cl)cc3F)c2-c2ccncn2)CC1`, the Ki was > 10 µM.

For the compound `CC1CSc2c(C(=O)O)c(=O)c3cc(F)c(N4CC[C@@H](N)C4)cc3n21` (some centres undefined), the Ki was > 10 µM.

Consider `Nc1ncnc2sc3c(c12)-c1ccc(NC(=O)Nc2ccccc2)cc1CC3`, for which the Ki was > 10 µM.

Consider `O=c1[nH]cnc2c1sc1c(Cl)ccc(Cl)c12`, for which the Ki was > 10 µM.

Turning to `O=C(Cc1ccccc1Cl)Nc1ccc2cn[nH]c2c1`, the inhibition constant (Ki) is > 10 µM.

For the compound `CCCCNC1=NS(=O)N=C1Nc1ccc(F)cc1` (centres undefined), the Ki was > 10 µM.

Compound `COc1cc(Nc2ncc([N+](=O)[O-])c(Nc3ccccc3C(N)=O)n2)cc(OC)c1OC` gave a Ki of 0.2 µM.

Take `CCOc1nc(NC(C)=O)cc(N)c1C#N`: the Ki was > 10 µM.

With `Oc1cccc(Nc2ncnc3scc(Cl)c23)c1`, the Ki was > 10 µM.

For the compound `C[C@@H](Nc1c(Nc2ccncc2)c(=O)c1=O)C(C)(C)C`, the Ki is > 10 µM.

With `NCC(NC(=O)c1ccc(-c2ccncc2)cc1)c1ccccc1` (centres undefined), the Ki was found to be 0.316 µM.

Turning to `Cc1c(-c2cccc(OCc3ccccc3)c2)c2c(N)ncnc2n1[C@H]1CC[C@@H](N2CCCC2)CC1`, the Ki was > 10 µM.

With `O=C(Nc1cnccn1)Nc1ccnc2c(F)cccc12`, the Ki was > 10 µM.

As for `O=C(Nc1cccc(Cl)c1)Nc1ncc(CCNc2ncnc3ccsc23)s1`, the inhibitory constant (Ki) was > 10 µM.

The compound `NC1CCCCC1Nc1nccc(-c2c[nH]c3ncccc23)n1` (centres undefined) came in with a Ki of 1.58 µM.

`NCCC(C(=O)Nc1ccc2[nH]ncc2c1)c1ccc(Cl)c(Cl)c1` (centres undefined) registered a Ki of 0.02 µM.

For `CCOc1nc(NC(=O)Cc2cc(OC)c(S(C)(=O)=O)cc2OC)cc(N)c1Cl`, the Ki is > 10 µM.

With `Nc1ncnc2sc(Br)c(-c3ccc(NC(=O)Cc4cccc(Cl)c4)cc3)c12`, the Ki was > 10 µM.

`O=C(N[C@H](CO)c1ccccc1)c1ccc(-c2ccncc2)cc1` gave a Ki of 1.58 µM.

Consider `CSc1ccc2nc3c(c(Cl)c2c1)CCNC3=O`, for which the Ki was > 10 µM.

Regarding `CCOC(=O)c1ccc2[nH]c3c(c2c1)CCNC3=O`, the inhibition constant (Ki) worked out at 6.31 µM.

For the compound `Cc1cccc(C2(c3cccc(C)c3)CC2C(=O)Nc2ccncc2)c1` (centres undefined), the Ki was > 10 µM.

Regarding `O=C1NCCc2[nH]c(-c3ccnc(-c4cnc5ccccc5c4)c3)cc21`, the Ki was > 10 µM.

As to `Cc1n[nH]c2c1C(c1ccccc1F)C1=C(CC(C)(C)CC1=O)N2` (centres undefined), the Ki is > 10 µM.

For `Oc1cc(O)cc(/C=C/c2ccc(O)c(O)c2)c1`, the Ki was 0.316 µM.

Regarding `OC1CCN(c2ncnc3[nH]cc(-c4ccccc4)c23)CC1`, the Ki was determined as 3.98 µM. Against the preceding compound, the Ki is about 13-fold higher.

On to `O=C1Nc2ccccc2Nc2nnc(I)cc21`, for which the Ki worked out at 3.98 µM. This counts as single-digit micromolar.

In the case of `O=c1[nH]sc2c1c(=O)c1cc(F)c(NCc3ccccc3)c(F)c1n2C1CC1`, the Ki is > 10 µM.

As to `C(=C\c1cncc(O[C@@H]2CCNC2)c1)/c1ccncc1`, the inhibitory constant (Ki) is > 10 µM.

`O=C(Nc1cnccn1)Nc1ccnc2ccc(C(F)(F)F)cc12`: the Ki amounted to 3.98 µM.

With `CCCCn1c(NC(=O)c2ccc(C#N)cc2)nc2cc(N(C)C(=O)C3CCCCC3)ccc21`, the Ki was > 10 µM.

On to `COc1ccc(CNc2c(Nc3ccncc3)c(=O)c2=O)c(OC)c1`, for which the Ki was > 10 µM.

`Nc1ccc(-c2csc3c(/C=C/c4nc5ccccc5[nH]4)cnc(N)c23)cc1` had a Ki of 7.94 µM. This lies in the single-digit micromolar range.

With `C[C@@H](O)Cn1cc(-c2cnc(N)c3c(-c4ccc(NC(=O)Nc5cccc(F)c5)cc4)csc23)cn1`, the Ki came out at 2.51 µM.

For `Cc1c(O)ccc2c1CCC/C2=N/NC(=O)Cc1cccc2ccccc12`, the Ki came to 0.501 µM.

For `COc1cc2c(N3CCN(C(=O)Nc4ccc(OC(C)C)cc4)CC3)ncnc2cc1OCCCN1CCCCC1`, the Ki is > 7.94 µM.

As to `CCS(=O)(=O)c1ccc(-c2cncc3sc(C(N)=O)cc23)cc1`, the Ki is 3.98 µM. This counts as single-digit micromolar.

`CC(=O)Nc1cc(N)c(C#N)c(-c2ccsc2)n1`: the Ki is > 10 µM.

For the compound `O=C(Nc1n[nH]c2ccc(-c3cn(Cc4ccccc4)nn3)cc12)c1ccccc1`, the inhibitory constant (Ki) stood at 0.0631 µM.

As to `CC[C@@H]1C(=O)N(C)c2cnc(Nc3ccc(C(=O)NC4CCCCC4)cc3OC)nc2N1C1CCCC1`, the Ki was > 10 µM.

In the case of `CC(C)Oc1nccn2c(-c3ccnc(NCC(C)(C)CO)n3)c(-c3ccc(F)cc3F)nc12`, the Ki was > 10 µM.

As for `O=C(Nc1ccc2cn[nH]c2c1)c1ccc(Cl)cc1`, the Ki is > 10 µM.

In turn, `CN1CCC(C(=O)n2nc(N)c3cc(-c4cn(Cc5ccccc5)nn4)ccc32)CC1` registered a Ki of 7.94 µM.

Turning to `OCCNc1cc2cc(-c3ccsc3)ccc2cn1`, the Ki turned out to be 0.501 µM.

Compound `CN(c1ncccc1CNc1nc(Nc2ccc3c(c2)CC(=O)N3)ncc1C(F)(F)F)S(C)(=O)=O` had a Ki of 2.51 µM.

As to `C#Cc1cc2c(cc1OC)-c1[nH]nc(-c3ccc(C#N)nc3)c1C2`, the inhibition constant (Ki) was > 10 µM.

Regarding `CCCOn1c2ccc(Cl)cc2c(=O)c2c(C)nn(C)c21`, the Ki was > 10 µM.

Regarding `N#Cc1ncc2nc1OCC(O)C(O)COc1ccc(Cl)cc1NC(=O)N2` (centres undefined), the Ki is > 10 µM.

As for `CNS(=O)(=O)c1ccccc1Nc1nc(Nc2cc(N3CCN(C(C)=O)CC3)ccc2OC)ncc1Br`, the Ki is > 10 µM.

For the compound `Oc1ccc(-c2nc(-c3ccc(F)cc3)c(-c3ccncc3)[nH]2)cc1`, the inhibitory constant (Ki) was > 6.31 µM.

With `O=C(Nc1cnccn1)Nc1ccnc2c(C(F)(F)F)cccc12`, the Ki is > 10 µM.

In the case of `O=C(c1cccc(-c2cnc3[nH]ccc3c2)c1)N1CCOCC1`, the Ki is > 10 µM.

`COc1cccc([C@@H](C)NC(=O)N2CC=C(c3c[nH]c4ncccc34)CC2)c1` gave a Ki of 0.02 µM.

In turn, `CCCC(=O)Nc1n[nH]c2ccc(-c3nnn(Cc4ccccc4)c3-c3ccccc3)cc12` had an inhibitory constant (Ki) of 1.58 µM.

`COc1ccc(C(=O)Nc2cnc3[nH]cc(-c4ccccc4)c3c2)cc1` returned a Ki of 10 µM.

Turning to `O[C@H]1CC[C@H](Nc2nc(Cl)cc(-c3c[nH]c4ncccc34)n2)CC1`, the Ki is 0.158 µM.

In the case of `O=C(O)c1c2c(nc3ccccc13)C(=C1CCCC1)CC2`, the Ki was > 10 µM.

Consider `Cc1cc(NC(=O)Cc2ccc(-c3cccc4[nH]nc(N)c34)cc2)ccc1F`, for which the Ki worked out at 1.26 µM.

Take `CC(C)(C)c1cc(NC(=O)Nc2cccc3ccccc23)n(-c2cccc(C(=O)NCC#N)c2)n1`: the Ki was > 10 µM.

For the compound `CC(C)N(C(=O)Nc1ccc2nc(-c3ccco3)c(-c3ccco3)nc2c1)C(C)C`, the Ki was > 10 µM.

`CCN(CC)CCOc1ccc(-c2nc3c(C(N)=O)cccc3[nH]2)cc1`: the Ki is > 10 µM.

For `Clc1ccc(CNc2ccc3nnc(-c4ccccc4)n3n2)cc1`, the Ki was > 10 µM.

`O=S(=O)(c1cccc2cnccc12)N1CCCNCC1` had a Ki of 6.31 µM.

Regarding `O=C(NCC1CCCCC1)c1cc2c(-c3ccccc3)n[nH]c2s1`, the inhibitory constant (Ki) was 3.16 µM.

Consider `O=c1c(NCc2ccccc2F)c(Nc2ccncc2)c1=O`, for which the Ki was 0.794 µM. Compared with the last compound, the Ki is about 4-fold lower.

For the compound `c1ccc(Cc2cc(-c3ccc4[nH]ncc4c3)on2)cc1`, the Ki is 1.58 µM.

`O=S(=O)(NCCNC/C=C/c1ccc(Br)cc1)c1cccc2cnccc12` showed a Ki of 1 µM.

Take `C(=N\Nc1nc2ccccc2[nH]1)/c1c[nH]c2ccccc12`: the Ki is > 10 µM.

Turning to `CCNNc1cc(C)c(C#N)c2nc3ccccc3n12`, the Ki is > 10 µM.

For the compound `O=S(=O)(O)c1ccc(NCc2ccc3c(c2)OCO3)c2c(O)cccc12`, the inhibition constant Ki was > 10 µM.

In the case of `O=C1CCCN1Cc1ccc2c(c1)[nH]c(=O)c1cccn12`, the Ki is > 10 µM.

As to `CNC(=O)c1cc(Oc2ccc(NC(=O)Nc3cccc(C(F)(F)F)c3)cc2)ccn1`, the inhibition constant (Ki) is > 10 µM.

Regarding `CCCCn1c(NC(=O)c2cccc(C#N)c2)nc2cc(N(C)C(=O)C3CCCCC3)ccc21`, the Ki is > 10 µM.

The values are drawn from the kinase profiling compilation of Christmann-Franck et al. (2016).
